{
  "source": "the NIST ThermoML archive (doi:10.1016/j.fluid.2015.03.031)",
  "test": "cn = amount concentration of the nth substance listed, in mol/dm3",
  "conditions": "101 kPa, Liquid; for viscosity: Capillary tube (Ostwald / Ubbelohde) method; for mass density: Pycnometric method",
  "note": "Numbers after ± are expanded uncertainties.",
  "data": [
    {"smiles": "NCCCC[C@H](N)C(=O)[O-].[K+]", "note": "[potassium L-lysinate] + O", "values": [
      {"measurement": "viscosity", "setting": "298 K, c1 = 0.5", "result": "1.162 ± 0.047", "unit": "mPa·s"},
      {"measurement": "viscosity", "setting": "298 K, c1 = 1.5", "result": "2.284 ± 0.092", "unit": "mPa·s"},
      {"measurement": "viscosity", "setting": "298 K, c1 = 2.5", "result": "3.165 ± 0.13", "unit": "mPa·s"},
      {"measurement": "mass density", "setting": "298 K, c1 = 0.5", "result": "1038.6 ± 0.3", "unit": "kg/m3"},
      {"measurement": "mass density", "setting": "298 K, c1 = 1.5", "result": "1108.9 ± 0.4", "unit": "kg/m3"},
      {"measurement": "mass density", "setting": "298 K, c1 = 2.5", "result": "1173.8 ± 0.4", "unit": "kg/m3"},
      {"measurement": "viscosity", "setting": "308 K, c1 = 0.5", "result": "0.9848 ± 0.04", "unit": "mPa·s"},
      {"measurement": "viscosity", "setting": "308 K, c1 = 1.5", "result": "1.905 ± 0.077", "unit": "mPa·s"},
      {"measurement": "viscosity", "setting": "308 K, c1 = 2.5", "result": "2.653 ± 0.11", "unit": "mPa·s"},
      {"measurement": "mass density", "setting": "308 K, c1 = 0.5", "result": "1036.3 ± 0.3", "unit": "kg/m3"},
      {"measurement": "mass density", "setting": "308 K, c1 = 1.5", "result": "1107.5 ± 0.4", "unit": "kg/m3"},
      {"measurement": "mass density", "setting": "308 K, c1 = 2.5", "result": "1171.1 ± 0.4", "unit": "kg/m3"},
      {"measurement": "viscosity", "setting": "313 K, c1 = 0.5", "result": "0.894 ± 0.036", "unit": "mPa·s"},
      {"measurement": "viscosity", "setting": "313 K, c1 = 1.5", "result": "1.686 ± 0.068", "unit": "mPa·s"},
      {"measurement": "viscosity", "setting": "313 K, c1 = 2.5", "result": "2.416 ± 0.098", "unit": "mPa·s"},
      {"measurement": "mass density", "setting": "313 K, c1 = 0.5", "result": "1030.7 ± 0.4", "unit": "kg/m3"},
      {"measurement": "mass density", "setting": "313 K, c1 = 1.5", "result": "1105.1 ± 0.4", "unit": "kg/m3"},
      {"measurement": "mass density", "setting": "313 K, c1 = 2.5", "result": "1168.8 ± 0.4", "unit": "kg/m3"}
    ]}
  ]
}
